Some test systems named below: EKVX NSCLC; SK-MEL-5 melanoma; OVCAR-4 ovarian; UACC-257 melanoma; TK-10 renal; UACC-62 melanoma; HT29 colon; NCI/ADR-RES ovarian; NCI-H522 lung; K-562 leukemia.
What all share (test): NCI tumour cell line growth inhibition, 48 h

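Exposure lasted 48 hours, with cells grown in 96-well plates and compounds tested at five concentrations. Abbreviation: GI50, concentration required for 50% inhibition of growth. The concentration for full growth arrest is given as TGI.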

Consider 8 molecules from PubChem BioAssay (NCI).

Regarding `CC1(C)CN(CCNc2nccc(-c3c(-c4cccc(O)c4)nc4sccn34)n2)S(=O)(=O)N1`, the GI50 in the test on EKVX NSCLC was over 33.2 µM; in the test on SK-MEL-5 melanoma, 1.29 µM; in the test on OVCAR-4 ovarian, 12.8 µM; in the test with UACC-257 melanoma, 2.12 µM; with TK-10 renal, over 22.6 µM; in the test on UACC-62 melanoma it was 0.116 µM. For the same molecule, the GI50 in the test on HT29 colon is 3.2 µM; in the test with NCI/ADR-RES ovarian, over 33.2 µM; in the test on NCI-H522 lung, 8.52 µM; in the test on K-562 leukemia, 6.46 µM. In addition, the TGI is over 33.2 µM in the test on EKVX NSCLC; 12.5 µM with SK-MEL-5 melanoma; over 33.2 µM in the test with OVCAR-4 ovarian; over 33.2 µM in the test with UACC-257 melanoma; over 33.2 µM in the test with TK-10 renal; 3.3 µM in the test on UACC-62 melanoma. Moreover, the TGI in the test with HT29 colon, with NCI/ADR-RES ovarian, in the test with NCI-H522 lung and in the test on K-562 leukemia was over 33.2 µM throughout.

For `CC(=O)c1ccc(Oc2c3ccccc3nc3occc23)cc1`, the GI50 in the test on EKVX NSCLC is 73.3 µM; with SK-MEL-5 melanoma, 8.75 µM; in the test with OVCAR-4 ovarian, 46.9 µM; in the test on UACC-257 melanoma, 4.85 µM; in the test with TK-10 renal, 11.4 µM; in the test on UACC-62 melanoma, 2.11 µM. For the same molecule, the GI50 with HT29 colon was 7.13 µM; in the test with NCI/ADR-RES ovarian, 2.52 µM; in the test with NCI-H522 lung it was 4.68 µM; with K-562 leukemia, 2.93 µM. Moreover, the TGI was over 100 µM in the test on EKVX NSCLC; over 100 µM in the test on SK-MEL-5 melanoma; over 100 µM with OVCAR-4 ovarian; over 100 µM in the test on UACC-257 melanoma; over 100 µM in the test on TK-10 renal; 7.95 µM in the test on UACC-62 melanoma. Also, the TGI in the test on HT29 colon is over 100 µM; with NCI/ADR-RES ovarian, 9.81 µM; in the test on NCI-H522 lung, over 100 µM; with K-562 leukemia, over 100 µM.

As for `C/C=C(\C)C(=O)O[C@@H]1C=CC(=O)O[C@H]1CNC(=O)[C@H](C)O`, the GI50 in the test with EKVX NSCLC was 20.9 µM; in the test with SK-MEL-5 melanoma it was 19.6 µM; in the test with OVCAR-4 ovarian, 19 µM; in the test on UACC-257 melanoma, 26.9 µM; in the test with TK-10 renal it was 18.9 µM; with UACC-62 melanoma, 16.9 µM. For the same molecule, the GI50 is 17.7 µM with HT29 colon, 34.6 µM with NCI/ADR-RES ovarian, 13.1 µM with NCI-H522 lung and 16.9 µM with K-562 leukemia. In addition, the TGI was 49.5 µM in the test with EKVX NSCLC; 38.8 µM in the test on SK-MEL-5 melanoma; 42.9 µM in the test on OVCAR-4 ovarian; over 84.4 µM in the test with UACC-257 melanoma; 43.2 µM with TK-10 renal; 37.7 µM with UACC-62 melanoma. In addition, the TGI was 40.6 µM with HT29 colon, over 100 µM in the test on NCI/ADR-RES ovarian, 30.5 µM in the test on NCI-H522 lung and 64.2 µM in the test on K-562 leukemia.

Take `Cc1ccc(C2C3Cc4ccccc4C3=NN2c2ccc(S(=O)(=O)NC(=O)Nc3ccccc3)cc2)cc1` (centres undefined): the GI50 was 13.7 µM in the test with EKVX NSCLC; 13.1 µM with SK-MEL-5 melanoma; 17.9 µM with OVCAR-4 ovarian; 18.6 µM in the test on UACC-257 melanoma; 16 µM in the test on TK-10 renal; 11.2 µM in the test on UACC-62 melanoma. The GI50 in the test on HT29 colon was 24.3 µM; in the test on NCI/ADR-RES ovarian, 14.7 µM; in the test on NCI-H522 lung, 10.6 µM; in the test on K-562 leukemia, 11.5 µM. The TGI with EKVX NSCLC stood at 33 µM; in the test with SK-MEL-5 melanoma, 25.7 µM; with OVCAR-4 ovarian, 50 µM; in the test with UACC-257 melanoma, 37.8 µM; in the test with TK-10 renal, 36.4 µM; with UACC-62 melanoma, 23.2 µM. For the same molecule, the TGI was over 100 µM in the test with HT29 colon, 38.8 µM with NCI/ADR-RES ovarian, 28.7 µM in the test with NCI-H522 lung and 26.8 µM in the test on K-562 leukemia.

As for `O=C(O)c1[nH]c2c([N+](=O)[O-])cc([N+](=O)[O-])cc2c1C(=O)O`, the TGI with EKVX NSCLC, in the test on SK-MEL-5 melanoma, with OVCAR-4 ovarian, in the test on UACC-257 melanoma, with TK-10 renal and with UACC-62 melanoma was over 100 µM in each case. Further, the TGI in the test on HT29 colon, in the test on NCI/ADR-RES ovarian, with NCI-H522 lung and in the test on K-562 leukemia was over 100 µM throughout.

`O=C(COc1cccc(/C=C2\Oc3ccc4ccccc4c3C2=O)c1)c1ccc([N+](=O)[O-])cc1`: the GI50 was over 100 µM with EKVX NSCLC; 13 µM with SK-MEL-5 melanoma; 20 µM with OVCAR-4 ovarian; over 100 µM in the test on UACC-257 melanoma; 37.3 µM with TK-10 renal; 14.1 µM in the test with UACC-62 melanoma. Also, the GI50 in the test on HT29 colon was 36 µM; with NCI/ADR-RES ovarian, over 100 µM; with NCI-H522 lung it was 11.2 µM; in the test with K-562 leukemia, 12.4 µM. The TGI is over 100 µM with EKVX NSCLC; 34.8 µM with SK-MEL-5 melanoma; 60.3 µM in the test with OVCAR-4 ovarian; over 100 µM in the test on UACC-257 melanoma; over 100 µM with TK-10 renal; 30.4 µM with UACC-62 melanoma. The TGI is over 100 µM in the test with HT29 colon, over 100 µM with NCI/ADR-RES ovarian, 29.3 µM with NCI-H522 lung and 39.4 µM with K-562 leukemia.

Take `Cc1ccc2c(c1)C(O)(c1ccccc1)CCS2` (centres undefined): the TGI in the test on EKVX NSCLC was over 100 µM; in the test on SK-MEL-5 melanoma it was over 100 µM; in the test on OVCAR-4 ovarian, over 100 µM; in the test with UACC-257 melanoma, over 100 µM; in the test on TK-10 renal it was 78.6 µM; in the test on UACC-62 melanoma, 52.7 µM. The TGI in the test on HT29 colon is 66 µM; with NCI/ADR-RES ovarian it was over 100 µM; in the test with NCI-H522 lung it was 44.6 µM; in the test on K-562 leukemia, over 100 µM.

As for `CCOC(=O)c1cc2c(n1Cc1cc(OC)cc(OC)c1)-c1oncc1CC2`, the GI50 was 0.32 µM in the test on EKVX NSCLC; 0.0827 µM in the test with SK-MEL-5 melanoma; 1.06 µM in the test with OVCAR-4 ovarian; 47 µM with UACC-257 melanoma; 3.58 µM with TK-10 renal; 0.403 µM in the test with UACC-62 melanoma. Besides, the GI50 is 0.073 µM with HT29 colon, 0.0486 µM with NCI/ADR-RES ovarian, 0.0404 µM with NCI-H522 lung and 0.0518 µM with K-562 leukemia. The TGI in the test on EKVX NSCLC is over 100 µM; in the test with SK-MEL-5 melanoma, 20.3 µM; with OVCAR-4 ovarian it was over 100 µM; in the test on UACC-257 melanoma, over 100 µM; in the test with TK-10 renal, over 100 µM; in the test on UACC-62 melanoma, over 100 µM. The TGI in the test on HT29 colon is over 100 µM; in the test with NCI-H522 lung, over 91.5 µM; in the test with K-562 leukemia, over 100 µM.
